Source: ChEMBL document CHEMBL1201862, “PubChem BioAssay data set” (2004)
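The compound was tested at five concentrations on cells cultured in 96-well plates, with a 48-hour exposure period. Here, GI50 denotes the concentration required for 50% inhibition of growth.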 Activity calls are given as the source filed them. Cut-off read from the data, not from the text of the source: active = GI50 up to about 1.1 µM and inactive = higher.

What was measured:
Assay in all cases: DTP human tumour cell line panel, 48 h
SN12C = tested on: SN12C
A549 = tested on: A549
786-0 = tested on: 786-0
NCI-H23 = tested on: NCI-H23
UO-31 = tested on: UO-31
SF-295 = tested on: SF-295
HCT-15 = tested on: HCT-15
SK-OV-3 = tested on: SK-OV-3
SK-MEL-5 = tested on: SK-MEL-5
SW-620 = tested on: SW-620
Malme-3M = tested on: Malme-3M
HT-29 = tested on: HT-29
OVCAR-4 = tested on: OVCAR-4
K562 = tested on: K562
EKVX = tested on: EKVX
HOP-62 = tested on: HOP-62
NCI-H460 = tested on: NCI-H460

Row | Structure (SMILES) | GI50 (SN12C) | GI50 (A549) | GI50 (786-0) | GI50 (NCI-H23) | GI50 (UO-31) | GI50 (SF-295) | GI50 (HCT-15) [µM] | GI50 (SK-OV-3) | GI50 (SK-MEL-5) | GI50 (SW-620) | GI50 (Malme-3M) | GI50 (HT-29) | GI50 (OVCAR-4) | GI50 (K562) | GI50 (EKVX) | GI50 (HOP-62) | GI50 (NCI-H460)
1 | COC(=O)C1(C)NCCc2c1[nH]c1ccccc21 (configuration not stated) | > 100 µM (inactive) | > 100 µM (inactive) | > 100 µM (inactive) | > 100 µM (inactive) | > 100 µM (inactive) | > 100 µM (inactive) | > 100 | > 100 µM (inactive) | > 100 µM (inactive) | > 100 µM (inactive) | > 100 µM (inactive) | > 100 µM (inactive) | > 100 µM (inactive) | > 100 µM (inactive) | > 100 µM (inactive) | > 100 µM (inactive) | –
2 | C=C1CCC(OC(C)=O)C2(C)C(OC(C)=O)CC3OC3(C)C2C(OC(C)=O)C2C(C)C(=O)OC2C1Cl (configuration not stated) | > 100 µM (inactive) | > 100 µM (inactive) | > 100 µM (inactive) | > 100 µM (inactive) | > 100 µM (inactive) | > 100 µM (inactive) | > 100 | > 100 µM (inactive) | > 100 µM (inactive) | > 100 µM (inactive) | > 100 µM (inactive) | > 100 µM (inactive) | > 100 µM (inactive) | > 100 µM (inactive) | > 100 µM (inactive) | > 100 µM (inactive) | > 100 µM (inactive)
3 | Cc1nc2ccccn2c1/N=N/c1ccc(C(=O)NN)cc1 | 27.7 µM (inactive) | 24.9 µM (inactive) | 53.8 µM (inactive) | 28.9 µM (inactive) | 36.9 µM (inactive) | 43.2 µM (inactive) | 54.2 | 48 µM (inactive) | 22.4 µM (inactive) | 49.3 µM (inactive) | > 100 µM (inactive) | 73.5 µM (inactive) | > 100 µM (inactive) | 49.8 µM (inactive) | 36.5 µM (inactive) | 38.3 µM (inactive) | –
4 | C[S+]=c1sc2ccccc2s1 | > 100 µM (inactive) | > 100 µM (inactive) | > 100 µM (inactive) | – | > 100 µM (inactive) | > 100 µM (inactive) | > 100 | > 100 µM (inactive) | > 100 µM (inactive) | > 100 µM (inactive) | > 100 µM (inactive) | > 100 µM (inactive) | > 100 µM (inactive) | > 100 µM (inactive) | – | > 100 µM (inactive) | > 100 µM (inactive)
5 | COc1ccc(C(=O)C(C(=O)CC(=O)Nc2cccc(C(F)(F)F)c2)c2ccc(OC)cc2)cc1 (configuration not stated) | > 100 µM (inactive) | > 100 µM (inactive) | > 100 µM (inactive) | > 100 µM (inactive) | > 100 µM (inactive) | > 100 µM (inactive) | > 100 | > 100 µM (inactive) | > 100 µM (inactive) | > 100 µM (inactive) | > 100 µM (inactive) | > 100 µM (inactive) | > 100 µM (inactive) | > 100 µM (inactive) | > 100 µM (inactive) | > 100 µM (inactive) | > 100 µM (inactive)
6 | COC(=O)CCC(NC(=S)N/N=C(\C)c1cnccn1)C(=O)OC (configuration not stated) | 86.7 µM (inactive) | 58.7 µM (inactive) | 58.6 µM (inactive) | 87.5 µM (inactive) | 49.1 µM (inactive) | 52.4 µM (inactive) | 44.5 | > 100 µM (inactive) | 34.2 µM (inactive) | 49.3 µM (inactive) | 54.1 µM (inactive) | 93.3 µM (inactive) | 56.2 µM (inactive) | 22.9 µM (inactive) | 40 µM (inactive) | 36.2 µM (inactive) | 53 µM (inactive)
7 | N#CC(C#N)=c1ccc(=C2N3CCCC3CN2C23CC4CC(CC(C4)C2)C3)cc1 (configuration not stated) | > 100 µM (inactive) | > 100 µM (inactive) | > 100 µM (inactive) | > 100 µM (inactive) | > 100 µM (inactive) | > 100 µM (inactive) | > 100 | > 100 µM (inactive) | > 100 µM (inactive) | > 100 µM (inactive) | > 100 µM (inactive) | > 100 µM (inactive) | – | > 100 µM (inactive) | > 100 µM (inactive) | 24.4 µM (inactive) | > 100 µM (inactive)
8 | Cc1ccc(S(=O)(=O)N/N=C2\C(=O)C3CC2C(Cl)C3Cl)cc1 (configuration not stated) | > 100 µM (inactive) | > 100 µM (inactive) | > 100 µM (inactive) | > 100 µM (inactive) | > 100 µM (inactive) | > 100 µM (inactive) | > 100 | > 100 µM (inactive) | > 100 µM (inactive) | > 100 µM (inactive) | > 100 µM (inactive) | > 100 µM (inactive) | > 100 µM (inactive) | > 100 µM (inactive) | – | > 100 µM (inactive) | > 100 µM (inactive)
9 | C[n+]1c2ccccc2c(CNC(CS)C(=O)O)c2ccccc21 (configuration not stated) | 30.5 µM (inactive) | 30.3 µM (inactive) | 31.8 µM (inactive) | 25.9 µM (inactive) | 18 µM (inactive) | 24.2 µM (inactive) | 20.7 | 23.1 µM (inactive) | > 10 µM (inactive) | 32.4 µM (inactive) | 37.8 µM (inactive) | 29.3 µM (inactive) | 28.1 µM (inactive) | 31.8 µM (inactive) | 19 µM (inactive) | 15.5 µM (inactive) | 21.8 µM (inactive)
10 | Nc1cccc(C(=O)/C=C/c2ccccc2O)c1 | > 100 µM (inactive) | > 100 µM (inactive) | 33.1 µM (inactive) | > 100 µM (inactive) | > 100 µM (inactive) | > 100 µM (inactive) | > 100 | > 100 µM (inactive) | > 100 µM (inactive) | 12.2 µM (inactive) | > 100 µM (inactive) | 68.2 µM (inactive) | – | 32.9 µM (inactive) | > 100 µM (inactive) | > 100 µM (inactive) | > 100 µM (inactive)
11 | [C-]#[N+][C@@H]1C2[C@H](CC[C@@]1(C)O)C(=C)CC[C@@H]2[C@@]1(C)CC[C@H](Cl)C(C)(C)O1 (some centres not stated) | 4.38 µM (inactive) | 8.02 µM (inactive) | 10.3 µM (inactive) | 4.75 µM (inactive) | 2.06 µM (inactive) | 12.1 µM (inactive) | 2.55 | 25.4 µM (inactive) | 3.02 µM (inactive) | 5.64 µM (inactive) | 5.28 µM (inactive) | 11.9 µM (inactive) | 3.24 µM (inactive) | 3.24 µM (inactive) | 7.14 µM (inactive) | – | 8.3 µM (inactive)
12 | CCC12C=C(C(=O)OC)N3c4ccccc4C4CCN(CCC1)C2C43 (configuration not stated) | 83.8 µM (inactive) | > 100 µM (inactive) | 21.3 µM (inactive) | 99.3 µM (inactive) | 77.3 µM (inactive) | 98.2 µM (inactive) | 64.3 | > 100 µM (inactive) | 72.1 µM (inactive) | 59.7 µM (inactive) | 18.8 µM (inactive) | 32.1 µM (inactive) | 97.9 µM (inactive) | 37.7 µM (inactive) | > 100 µM (inactive) | 38.9 µM (inactive) | –
13 | C#CC1(O)CCC2C3CCc4cc(Oc5nc(F)nc(-c6c7ccccc7c7n6CCS7)n5)ccc4C3CC[C@@]21C (some centres not stated) | – | 33.6 µM (inactive) | 34.1 µM (inactive) | 18.7 µM (inactive) | 28.6 µM (inactive) | 15.6 µM (inactive) | 15.1 | – | 17.4 µM (inactive) | 32.6 µM (inactive) | 38.5 µM (inactive) | 27.9 µM (inactive) | 15.3 µM (inactive) | 21.3 µM (inactive) | – | 17.9 µM (inactive) | 35.4 µM (inactive)
14 | NC(=O)C(=O)Cc1nc2ccccc2s1 | > 100 µM (inactive) | > 100 µM (inactive) | > 100 µM (inactive) | > 100 µM (inactive) | > 100 µM (inactive) | > 100 µM (inactive) | > 100 | > 100 µM (inactive) | – | > 100 µM (inactive) | > 100 µM (inactive) | > 100 µM (inactive) | > 100 µM (inactive) | > 100 µM (inactive) | > 100 µM (inactive) | > 100 µM (inactive) | > 100 µM (inactive)
15 | CC1=N/C(=C\c2cccc3ccccc23)C(=O)O1 | > 100 µM (inactive) | > 100 µM (inactive) | > 100 µM (inactive) | > 100 µM (inactive) | > 100 µM (inactive) | > 100 µM (inactive) | > 100 | – | > 100 µM (inactive) | > 100 µM (inactive) | > 100 µM (inactive) | > 100 µM (inactive) | – | > 100 µM (inactive) | > 100 µM (inactive) | > 100 µM (inactive) | > 100 µM (inactive)
16 | CC1CC(=O)Nc2ccccc2N1C(=O)CN1CCC(CCCCN(C)C)CC1 (configuration not stated) | > 100 µM (inactive) | > 100 µM (inactive) | > 100 µM (inactive) | > 100 µM (inactive) | > 100 µM (inactive) | > 100 µM (inactive) | > 100 | – | > 100 µM (inactive) | > 100 µM (inactive) | > 100 µM (inactive) | > 100 µM (inactive) | > 100 µM (inactive) | > 100 µM (inactive) | > 100 µM (inactive) | > 100 µM (inactive) | > 100 µM (inactive)
17 | O=C(CC1Sc2ccccc2NC1=O)Nc1ccc([N+](=O)[O-])cc1[N+](=O)[O-] (configuration not stated) | 16.1 µM (inactive) | 26.5 µM (inactive) | 17.9 µM (inactive) | 13.1 µM (inactive) | 12 µM (inactive) | 16.8 µM (inactive) | – | – | 15.8 µM (inactive) | 18.4 µM (inactive) | 19.8 µM (inactive) | 17.7 µM (inactive) | 17.2 µM (inactive) | – | 32.2 µM (inactive) | 40.6 µM (inactive) | 23.7 µM (inactive)
18 | COc1ccc2nc3cc(Cl)ccc3c(NC(C)CCCN(CCCl)CCCl)c2c1 (configuration not stated) | 0.269 µM (active) | 0.474 µM (active) | 0.31 µM (active) | 0.51 µM (active) | 2.04 µM (inactive) | 0.215 µM (active) | 1.11 | 0.83 µM (active) | 1.97 µM (inactive) | 0.116 µM (active) | 1.85 µM (inactive) | 0.272 µM (active) | 0.849 µM (active) | 0.262 µM (active) | 0.787 µM (active) | 1.4 µM (inactive) | 0.159 µM (active)
